Measurements reported in ChEMBL document CHEMBL1148404, “Novel heteroarotinoids as potential antagonists of Mycobacterium bovis BCG” (2004).

The compounds below were run on Mycobacterium tuberculosis variant bovis (assay: Antibacterial activity against Mycobacterium bovis (BCG); value ranges from 10-20).
Assay type: functional
For CC1=CC(C)(C)N(C)c2ncc(/C=C/C(C)=C\C=N\N=C(/N)S)cc21, the MIC was < 20 µg/mL.

These compounds were tested on Mycobacterium tuberculosis variant bovis (assay: Antibacterial activity against Mycobacterium bovis (BCG); value ranges from 20-40).
Assay type: functional
CCOC(=O)c1ccc(N/C(S)=N/c2ccc3c(c2)C(C)=CC(C)(C)N3C)cc1 was tested, and the MIC was < 40 µg/mL. With CCOC(=O)c1ccc(N/C(S)=N/c2ccc3c(c2)C(C)(C)CC(C)(C)S3)cc1 the MIC was < 40 µg/mL. For COc1ccc2c(c1NC(=S)NC(=O)c1ccc([N+](=O)[O-])cc1)C(C)(C)COC2(C)C, the MIC was < 40 µg/mL. With COc1ccc2c(c1/N=C(\S)Nc1ccc([N+](=O)[O-])cc1)C(C)(C)COC2(C)C the MIC was < 40 µg/mL. With CCOC(=O)c1ccc(NC(=O)Nc2ccc3c(c2)C(C)(C)CC(C)(C)S3)cc1 the MIC was < 40 µg/mL. In the case of CC1(C)CC(C)(C)c2cccc(/N=C(\S)Nc3ccc([N+](=O)[O-])cc3)c2O1, the MIC is reported as < 40 µg/mL. For CCOC(=O)c1ccc(NC(=O)Nc2ccc3c(c2)C(C)=CC(C)(C)N3C)cc1, the MIC was < 40 µg/mL. In the case of CCOC(=O)c1ccc(N/C(S)=N/c2cccc3c2OC(C)(C)CC3(C)C)cc1, the MIC is reported as < 40 µg/mL. With CCOC(=O)c1ccc(NC(=O)Nc2cccc3c2OC(C)(C)CC3(C)C)cc1 the MIC was < 40 µg/mL. For CCOC(=O)c1ccc(NC(=O)Nc2ccc3c(c2)C(C)(C)CC(C)(C)O3)cc1, the MIC was < 40 µg/mL. With CC1(C)CC(C)(C)c2cc(N/C(S)=N/c3ccc([N+](=O)[O-])cc3)ccc2O1 the MIC was < 40 µg/mL. With CC1=CC(C)(C)N(C)c2ccc(N/C(S)=N/c3ccc([N+](=O)[O-])cc3)cc21 the MIC was < 40 µg/mL.

Each compound was assayed on Mycobacterium tuberculosis variant bovis (assay: Antibacterial activity against Mycobacterium bovis (BCG); value ranges from 5-10).
Assay type: functional
With CCOC(=O)c1ccc(N/C(S)=N/c2ccc3c(c2)C(C)(C)CC(C)(C)O3)cc1 the MIC was < 10 µg/mL.

The compounds below were run on Mycobacterium tuberculosis variant bovis (assay: Antibacterial activity against Mycobacterium bovis (BCG); value ranges from 0.5-1).
Assay type: functional
With CC(C)CCOc1ccc(NC(=S)Nc2ccc(OCCC(C)C)cc2)cc1 [TIOCARLIDE] the MIC was < 1 µg/mL.

What follows are compounds tested on Mycobacterium tuberculosis variant bovis (assay: Antibacterial activity against Mycobacterium bovis (BCG); value ranges from 2-4).
Assay type: functional
In the case of COC(=O)c1ccc(C(=O)Oc2ccc3c(c2)OC(C)(C)C=C3C)cc1, the MIC is reported as < 4 µg/mL.
